Structures are written as SMILES.

Series [1] can be described thus: Body and spleen weight in GSK126 in vivo studies. The arrangement: species or system mouse. The procedure:
Female C57BL/6 mice (Harlan Laboratories) were maintained on a 12-hour light/12-hour dark cycle and were permitted ad libitum access to food and water. For efficacy studies, 6-week old mice received daily intraperitoneal (IP) injections of GSK126 at 15 mg/kg, 50 mg/kg, or vehicle (DMSO) in 20% Captisol adjusted to pH 4-4.5 with IN acetic acid (McCabe et al., Nature, 492:108-112 (2012)) for 5 weeks.
The dosage, delivery schedule, and administration route were similar to those described elsewhere (McCabe et al., Nature, 492:108-112 (2012)). Animals were weighed daily. To label mineralizing bone surfaces, mice received subcutaneous injections of calcein (10 mg/kg) 5 days and 24 hours before euthanasia.
The effects of GSK126 administration on the skeleton was evaluated in an estrogen-deficient ovariectomy (OVX) model. At about 12 weeks of age, female C57BL/6 mice underwent either sham or OVX surgeries. The following day, animals received daily IP injections of GSK126 or vehicle (DMSO) at 50 mg/kg body weight for 6 weeks as described herein. To label mineralizing bone surfaces and study bone formation rates, mice received subcutaneous injections of tetracycline (25 mg/kg) 14 days prior sacrifice and calcein (10 mg/kg) at 5 days and 24 hours before euthanasia.

Series [2] concerns mouse calvarial explants. Description: RT-qPCR mRNA expression in calvarial explants. Particulars: calvarial explants from neo-natal and adult mice, 3 μM, 12 days ex vivo. Format: cell-based. The procedure: Calvariae from 2 to 3-day-old and from 7-week old C57BL/6 mice were dissected aseptically. The calvarial bone explants were cultured in 48-well plates in α-MEM (Biochrom) containing 10% FCS (Biochrom), 50 μg/mL ascorbic acid (Sigma-Aldrich), 5 mM β-glycerophosphate (Sigma-Aldrich), and 10 μg/mL gentamicin (Sigma-Aldrich). The day after dissection, medium was changed, and a part of the explants was treated with 3 μM L- or DL-SFN for 12 days. Thereafter, one part of the calvariae were fixed for 1 hour in 4% para-formaldehyde (PFA), and mineralization was measured by Alizarin Red S stain (Sigma-Aldrich). For this purpose, Alizarin Red S dye was extracted using 10% cetylpyridinium chloride (CPC) in 10 mM sodiumphosphate (pH=7.0) for 45 minutes at room temperature. Alizarin Red S absorbance was measured at 562 nm in a multi-plate reader (Tecan, Maennedorf, Switzerland) and normalized to total protein amount measured by bicinchoninic acid assay (Thermo Fisher Scientific, Waltham, Mass., USA). […]
Total RNA was extracted using the SV Total RNA Isolation kit (Promega) following the supplier's instructions. cDNA was synthesized from about 0.5 μg RNA using the First Strand cDNA Synthesis kit (Roche) as described by the supplier. […] All RT-qPCR assays were performed in triplicate, and expression was evaluated using the comparative quantification method (Pfaffl, Nucleic Acids Res., 29:e45 (2001)).

In series [3] the test system is sham operated or ovariectomized (OVX) C57B16/J female mice. Description: In vivo analysis of SFN effects on bone, μCT. Particulars: sham-operated mice. The arrangement: species or system mouse. As to the method: Analysis of SFN on mice was performed using a protocol similar to that described elsewhere (Kong et al., Arthritis Rheum., 62:159-170 (2010)). In the experimental setting herein, eight week old sham operated or ovariectomized (OVX) C57B16/J female mice were purchased from Charles River laboratories. Mice were injected with 7.5 mM DL-SFN (200 μL of SFN at a concentration of 63.8 mg/mL/kg dissolved in ethanol and further diluted in PBS) intraperitoneally every other day for five weeks. Control mice received vehicle alone.
Images from tibias fixed in 4% formaldehyde were acquired in a SkyScan 1174 with a resolution of 6 μm (X-ray voltage 50 kV). Image reconstruction was performed by applying a modified Feldkamp algorithm using the Skyscan Nrecon software. 3D and 2D morphometric parameters were calculated for the trabecular bone (350 consecutive slides, 6 μm thick) starting from 300 μm from the growth plate. Threshold values were applied for segmenting trabecular bone corresponding to bone mineral density values of 0.6/cm^3 calcium hydroxyapatite. 3D parameters were based on analysis of a Marching Cubes type model with a rendered surface. Calculation all of 2D areas and perimeters was based on the Pratt algorithm (Pratt et al., IEEE Trans. Biomed. Eng., 38, 306-309 (1991). Bone structural variables and nomenclature were used according to Bouxsein et al. (J. Bone Miner. Res., 25:1468-1486 (2010)).

Turning to `CC[C@H](C)n1cc(C)c2c(C(=O)NCc3c(C)cc(C)[nH]c3=O)cc(-c3ccc(N4CCNCC4)nc3)cc21` [GSK126, N-[(1,2-dihydro-4,6-dimethyl-2-oxo-3-pyridinyl)methyl]-3-methyl-1-[(1S)-1-methylpropyl]-6-[6-(1-piperazinyl)-3-pyridinyl]-1H-indole-4-carboxamide], the “body or spleen weight at sacrifice” value in series [1] (C57bl/6 mice, 15 mg/kg or 50 mg/kg GSK126 for 5 weeks vs vehicle) is recorded as “No changes”. Moreover, the “Body and spleen weights” value in series [1] (mouse ovariectomy model, six weeks of daily injections, between surgical and treatment groups) is listed as “similar”.
With `C[S+]([O-])CCCCN=C=S` (racemic) [DL-SFN], the Tnfsf11 expression entry in series [2] is given as “decreased”. In addition, in series [3] (DL-SFN IP every other day for five weeks), the “femoral metaphyseal cancellous bone volume per tissue volume (BV/TV)” value is listed as “significantly higher”. In addition, in series [3] (DL-SFN for five weeks), the “trabecular number (Tb.N)” value is “significantly higher”, the “trabecular separation (Tb.Sp.)” value is “decreasing” and the “trabecular thickness (Tb.Th.)” value is given as “not affecting”.

(Values after patent publication US20180133211A1, “METHODS AND MATERIALS FOR PROMOTING BONE FORMATION” (Mayo Foundation for Medical Education and Research, priority 2015, published 2018).)
